# According to PubChem BioAssay AID1963858 (Molecular Pharmacology Branch, DTP, NCI, 2024):
# Test system: HOP-62 multicell spheroids with HUVEC/MSC, viability
# Assay: Anticancer human tumor HOP-62 cell line growth inhibition [KRAS2];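 further: viability read after a week of compound exposure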;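 on viability, T/C: 100% = DMSO vehicle-treated spheroids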
# Details: for IC50: curve of first compound; for viability, T/C: stronger effect = lower value
# Summary of the method: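 KRAS-mutant tumor cells were grown as spheroids with HUVEC endothelial cells and human MSCs as stroma. Targeted agents were tested alone and with KRAS pathway inhibitors. Doses started at or near clinical Cmax, or 10 microM, descending half-log.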
# [1] = second compound 0.1 µM, first compound 0.000316 µM
# [2] = second compound 0.1 µM, first compound 0.001 µM
# [3] = second compound 0.1 µM, first compound 0.00316 µM
# [4] = second compound 0.1 µM, first compound 0.01 µM
# [5] = second compound 0.1 µM, first compound 0.0316 µM
# [6] = second compound 0.316 µM, first compound 0.000316 µM
# [7] = second compound 0.316 µM, first compound 0.001 µM
# [8] = second compound 0.316 µM, first compound 0.00316 µM
# [9] = second compound 0.316 µM, first compound 0.01 µM
# [10] = second compound 0.316 µM, first compound 0.0316 µM
# [11] = second compound 1 µM, first compound 0.000316 µM
# [12] = second compound 1 µM, first compound 0.001 µM
# [13] = second compound 1 µM, first compound 0.00316 µM
# [14] = second compound 1 µM, first compound 0.01 µM
# [15] = second compound 1 µM, first compound 0.0316 µM
# [16] = second compound 3.16 µM, first compound 0.000316 µM
# [17] = second compound 3.16 µM, first compound 0.001 µM
# [18] = second compound 3.16 µM, first compound 0.00316 µM
# [19] = second compound 3.16 µM, first compound 0.01 µM
# [20] = second compound 3.16 µM, first compound 0.0316 µM
# [21] = second compound 10 µM, first compound 0.000316 µM
# [22] = second compound 10 µM, first compound 0.001 µM
# [23] = second compound 10 µM, first compound 0.00316 µM
# [24] = second compound 10 µM, first compound 0.01 µM
# [25] = second compound 10 µM, first compound 0.0316 µM
# [26] = second compound 0.1 µM, first compound 0.1 µM
# [27] = second compound 0.316 µM, first compound 0.1 µM
# [28] = second compound 1 µM, first compound 0.1 µM
# [29] = second compound 3.16 µM, first compound 0.1 µM
# [30] = second compound 10 µM, first compound 0.1 µM
compound,measurement,setting,value
CC(=O)Nc1cccc(-n2c(=O)n(C3CC3)c(=O)c3c(Nc4ccc(I)cc4F)n(C)c(=O)c(C)c32)c1 + COc1cc2nc(C)nc(NC(C)c3cc(N)cc(C(F)(F)F)c3)c2cc1OC1CCOC1,IC50,second compound 0.1 µM,2.5 nM
same,IC50,second compound 0.316 µM,3.01 nM
same,IC50,second compound 1 µM,2.01 nM
same,IC50,second compound 3.16 µM,0.494 nM
same,IC50,second compound 10 µM,< 0.1 nM
same,"viability, T/C","second compound 0.1 µM, first compound 0.0001 µM",111%
same,"viability, T/C",[1],79%
same,"viability, T/C",[2],77.8%
same,"viability, T/C",[3],42.5%
same,"viability, T/C",[4],25.5%
same,"viability, T/C",[5],23.8%
same,"viability, T/C","second compound 0.316 µM, first compound 0.0001 µM",85.2%
same,"viability, T/C",[6],91.4%
same,"viability, T/C",[7],79.9%
same,"viability, T/C",[8],49.2%
same,"viability, T/C",[9],24.9%
same,"viability, T/C",[10],24.5%
same,"viability, T/C","second compound 1 µM, first compound 0.0001 µM",84.1%
same,"viability, T/C",[11],75.8%
same,"viability, T/C",[12],75.5%
same,"viability, T/C",[13],33.6%
same,"viability, T/C",[14],24.9%
same,"viability, T/C",[15],25.2%
same,"viability, T/C","second compound 3.16 µM, first compound 0.0001 µM",58.1%
same,"viability, T/C",[16],50.5%
same,"viability, T/C",[17],45.8%
same,"viability, T/C",[18],29.2%
same,"viability, T/C",[19],21.9%
same,"viability, T/C",[20],22.7%
same,"viability, T/C","second compound 10 µM, first compound 0.0001 µM",39.6%
same,"viability, T/C",[21],33.7%
same,"viability, T/C",[22],31.4%
same,"viability, T/C",[23],27.8%
same,"viability, T/C",[24],25.3%
same,"viability, T/C",[25],22.1%
CN(C)C/C=C/C(=O)Nc1cc2c(Nc3ccc(F)c(Cl)c3)ncnc2cc1O[C@H]1CCOC1 + COc1cc2nc(C)nc(NC(C)c3cc(N)cc(C(F)(F)F)c3)c2cc1OC1CCOC1,IC50,second compound 0.1 µM,> 100 nM
same,IC50,second compound 0.316 µM,> 100 nM
same,IC50,second compound 1 µM,> 100 nM
same,IC50,second compound 3.16 µM,> 100 nM
same,IC50,second compound 10 µM,> 100 nM
same,"viability, T/C",[1],105%
same,"viability, T/C",[2],109%
same,"viability, T/C",[3],105%
same,"viability, T/C",[4],107%
same,"viability, T/C",[5],105%
same,"viability, T/C",[26],97%
same,"viability, T/C",[6],115%
same,"viability, T/C",[7],107%
same,"viability, T/C",[8],112%
same,"viability, T/C",[9],96.7%
same,"viability, T/C",[10],100%
same,"viability, T/C",[27],97.7%
same,"viability, T/C",[11],107%
same,"viability, T/C",[12],102%
same,"viability, T/C",[13],114%
same,"viability, T/C",[14],106%
same,"viability, T/C",[15],101%
same,"viability, T/C",[28],111%
same,"viability, T/C",[16],72.3%
same,"viability, T/C",[17],64.1%
same,"viability, T/C",[18],70%
same,"viability, T/C",[19],64.2%
same,"viability, T/C",[20],59.8%
same,"viability, T/C",[29],64.3%
same,"viability, T/C",[21],73.7%
same,"viability, T/C",[22],51.6%
same,"viability, T/C",[23],49.6%
same,"viability, T/C",[24],62.7%
same,"viability, T/C",[25],59.9%
same,"viability, T/C",[30],70.8%
COC(=O)c1ccc2c(C(=Nc3ccc(N(C)C(=O)CN4CCN(C)CC4)cc3)c3ccccc3)c(O)[nH]c2c1 + COc1cc2nc(C)nc(NC(C)c3cc(N)cc(C(F)(F)F)c3)c2cc1OC1CCOC1,IC50,second compound 0.1 µM,797 nM
same,IC50,second compound 0.316 µM,325 nM
same,IC50,second compound 1 µM,52.2 nM
same,IC50,second compound 3.16 µM,< 31.6 nM
same,IC50,second compound 10 µM,< 31.6 nM
same,"viability, T/C",[5],98.5%
same,"viability, T/C",[26],85.7%
same,"viability, T/C","second compound 0.1 µM, first compound 0.316 µM",53%
same,"viability, T/C","second compound 0.1 µM, first compound 1 µM",50.9%
same,"viability, T/C","second compound 0.1 µM, first compound 3.16 µM",34.9%
same,"viability, T/C","second compound 0.1 µM, first compound 10 µM",10.4%
same,"viability, T/C",[10],67%
same,"viability, T/C",[27],57.1%
same,"viability, T/C","second compound 0.316 µM, first compound 0.316 µM",51.5%
same,"viability, T/C","second compound 0.316 µM, first compound 1 µM",25.5%
same,"viability, T/C","second compound 0.316 µM, first compound 3.16 µM",26.3%
same,"viability, T/C","second compound 0.316 µM, first compound 10 µM",20.8%
same,"viability, T/C",[15],54%
same,"viability, T/C",[28],46.1%
same,"viability, T/C","second compound 1 µM, first compound 0.316 µM",33.4%
same,"viability, T/C","second compound 1 µM, first compound 1 µM",28.7%
same,"viability, T/C","second compound 1 µM, first compound 3.16 µM",26.7%
same,"viability, T/C","second compound 1 µM, first compound 10 µM",16.2%
same,"viability, T/C",[20],45.2%
same,"viability, T/C",[29],32.6%
same,"viability, T/C","second compound 3.16 µM, first compound 0.316 µM",36.5%
same,"viability, T/C","second compound 3.16 µM, first compound 1 µM",24.5%
same,"viability, T/C","second compound 3.16 µM, first compound 3.16 µM",18.9%
same,"viability, T/C","second compound 3.16 µM, first compound 10 µM",0.46%
same,"viability, T/C",[25],39.9%
same,"viability, T/C",[30],32.6%
same,"viability, T/C","second compound 10 µM, first compound 0.316 µM",30.7%
same,"viability, T/C","second compound 10 µM, first compound 1 µM",24.5%
same,"viability, T/C","second compound 10 µM, first compound 3.16 µM",0.7%
same,"viability, T/C","second compound 10 µM, first compound 10 µM",0.2%
